{"source": "patent US8080252B2", "about": "“Compounds and methods of modulating angiogenesis” (The Cleveland Clinic Foundation, priority 2006, dated 2011)", "key": {"β3 integrin": {"test_system": "β3 integrin", "test": "β3 integrin tyrosine phosphorylation (Tyr-747 and 759) in HUVECs, Western blot", "assay_type": "cell-based, Human", "settings": "adherent endothelial cells plated on vitronectin", "experimental": "αvβ3 integrin is expressed on proliferating endothelial cells during angiogenesis and vascular remodeling and the blockade of αvβ3 integrin suppressed angiogenesis in several in vivo models. Therefore, we assessed whether the blockade of αvβ3 affected tyrosine phosphorylation of β3 subunit. […] Cells were also treated with non-immune IgG as control. These cells were washed and further induced with VEGF for 5 min at 37° C. Cell lysates were analyzed for phosphorylation of β3 integrin (Tyr-747 and 759). […] Basal level of β3 integrin tyrosine phosphorylation remains unaffected irrespective of different blocking antibody treatment. To further examine consequences of αvβ3 integrin blocking antibodies, cell lysates were analyzed for tyrosine phosphorylation of VEGFR-2 (Tyr-1175).\nCytoplasmic domains of integrin β subunits are highly conserved and represents region of structural homology between the various groups. […] Cell lysates were analyzed for the phosphorylation of β3 integrin. […]\nCells were lysed in immunoprecipitation lysis buffer (1% Noniodet P-40, 150 mM NaCl, 50 mM Tris-HCL (pH 7.8), 2 mM EDTA, 10 mM NaF, 10 mM Na2P2O7, 2 mM Na3VO4 10 μg/mL leupeptin, 4 μg/mL pepstatin and 0.1 U/mL aprotinin). […] Bands were analyzed by densitomeric analysis using Kodak 1D software and fold changes were indicated."}, "HUVECs [1]": {"test_system": "HUVECs", "test": "Cell adhesion assay of HUVECs on vitronectin (Example 5)", "assay_type": "cell-based, Human", "experimental": "Cells were washed twice with sterile PBS and re-suspended in DMEM. The cell suspensions were added to ligand-coated wells and placed in humidified incubator for 45 min. Wells were gently washed three times with DMEM and photographs were taken. The numbers of attached and spread cells per field were counted."}, "HUVECs [2]": {"test_system": "HUVECs", "test": "Cell migration assay of HUVECs on vitronectin, VEGF as agonist (Example 5)", "assay_type": "cell-based, Human", "settings": "vitronectin as substrate", "method": "To assess the role of Src-mediated β3 integrin tyrosine phosphorylation in αvβ3 integrin dependent EC migration, HUVECs transfected with various forms of Src were evaluated in migration assays using VEGF as an agonist and vitronectin as a substrate. […] To further evaluate the c-Src mediated β3 integrin cytoplasmic tyrosine motifs phosphorylation in αvβ3 integrin dependent endothelial cell migration, wild type and DiYF mouse lung microvascular endothelial cells were transfected with wild type, dominant negative and catalytically active form of c-Src and stimulated with VEGF (FIG. 23 B).\nTranswell tissue culture inserts were coated with αvβ3 integrin ligand vitronectin for 24 h at 4° C. Endothelial cells were transfected with various forms of c-Src or treated with inhibitors and were trypsinized; then 1×10^5 cells were added into each well. Cells were allowed to migrate for 12 h and fixed with 70% methanol for 15 min and stained with Giemsa. The non-migrated cells adhered to the top surface were removed and three random 10× fields were photographed using an inverted phase contrast microscopy."}, "c-Src": {"target": "T1, c-Src (Homo sapiens, UniProt P12931)", "T1 construct": "c-Src was immunoprecipitated from VEGF-stimulated HUVEC; endogenous in cells; host or cells: HUVEC (immunoprecipitate)", "T1 sequence (P12931 whole entry, the tested form may be a part)": "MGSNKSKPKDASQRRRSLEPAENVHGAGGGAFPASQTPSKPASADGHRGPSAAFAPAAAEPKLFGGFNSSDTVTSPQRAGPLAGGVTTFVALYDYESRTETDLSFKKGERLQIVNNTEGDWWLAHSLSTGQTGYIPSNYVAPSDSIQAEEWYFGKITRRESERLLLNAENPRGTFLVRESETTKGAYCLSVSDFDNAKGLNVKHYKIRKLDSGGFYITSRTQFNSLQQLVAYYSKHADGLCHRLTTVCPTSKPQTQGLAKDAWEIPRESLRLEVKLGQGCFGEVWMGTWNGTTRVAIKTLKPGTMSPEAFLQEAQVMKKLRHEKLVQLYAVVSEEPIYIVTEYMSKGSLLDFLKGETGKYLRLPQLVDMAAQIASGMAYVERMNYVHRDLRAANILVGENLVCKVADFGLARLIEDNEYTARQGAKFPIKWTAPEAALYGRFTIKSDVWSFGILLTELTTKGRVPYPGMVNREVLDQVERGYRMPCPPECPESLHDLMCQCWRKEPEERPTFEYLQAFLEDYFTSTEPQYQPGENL", "test": "In vitro kinase assay, c-Src phosphorylation of β3 integrin cytoplasmic domain or peptides", "assay_type": "biochemical", "settings": "[γ-32P] ATP incorporation", "text": "Principle mechanism by which integrins appear to mediate the transfer of information from extracellular environment to intracellular milieu is through phosphorylation of β-subunit at cytoplasmic tyrosine motifs. Ligand occupancy of αvβ3 is a prerequisite for the tyrosine phosphorylation events and implying an important role for outside-in integrin signaling in this process. To examine whether c-Src can directly mediate β3 integrin tyrosine phosphorylation, c-Src was immunoprecipitated from VEGF-stimulated HUVEC. Immunocomplex were incubated with a full-length purified β3 integrin cytoplasmic domain, and [γ-^32P] ATP incorporation into was monitored. […] Recombinant purified c-Src also phosphorylated the β3 integrin whereas no phosphorylation was observed without the substrate, indicating the specificity of the reaction (lane 1 and 5). […] To further investigate whether c-Src phosphorylates Tyr-747 or Tyr-759 of β3 integrin or both residues, kinase assay were performed using peptide derived from these two distinct sites of β3 integrin as substrates (FIG. 20 E). […] In the presence of Tyr-747/Tyr-759 β3 integrin cytoplasmic peptide, a dramatic increase in [γ-^32P] ATP incorporation was observed as compared to control peptides devoid of tyrosine motifs. Similar results were observed using purified recombinant c-Src protein. As anticipated, [γ-^32P] […]"}}, "data": [{"smiles": "CN(C)S(=O)(=O)c1ccc2c(c1)C(=Cc1cc3c([nH]1)CCCC3)C(=O)N2", "note": "[SU6656, 2-oxo-3(4,5,6,7-tetrahydro-1-H-indol-2-ylmethylene)-2,3-dihydro-1H-indole-5-sulfonic acid dimethylamide]", "values": [{"measurement": "effect on β3 integrin tyrosine phosphorylation", "setting": "β3 integrin", "value": "completely blocked"}, {"measurement": "effect on cell adhesion to vitronectin", "setting": "HUVECs [1]", "value": "caused impairment of cell adhesion to vitronectin"}, {"measurement": "effect on EC migration triggered by VEGF", "setting": "HUVECs [2]", "value": "reduced EC migration triggered by VEGF"}, {"measurement": "effect on phosphorylation of β3 integrin cytoplasmic domain by immunoprecipitated c-Src", "setting": "c-Src", "value": "blocked this process"}]}]}
